Row | Compound | melting point
1 | CC1CC(C)CN(S(=O)(=O)c2ccc(Cl)c(C(=O)Cl)c2)C1 (centres undefined) | 164 to 166 °C
2 | CN1Cc2c(CO)ncn2-c2ccccc2C1=O | 219 to 221 °C
3 | COC(=O)C1Cc2c([nH]c3ccccc23)CN1 (centres undefined) | 164 to 165 °C
4 | CNC(=O)c1cccc(F)c1Nc1nc(Nc2ccc3c(c2)C(=O)NCCC3)ncc1Cl | 200 °C
5 | COCOc1cc(OC)c(OC)cc1-c1c(C(=O)OC)[nH]c(C(=O)OC)c1-c1ccc(OC)c(OC)c1 | 162 to 163 °C
6 | CCNC(=S)Nc1ccccc1N1CCOCC1 | 118 to 120 °C
7 | C[C@]12C/C(=C\F)[C@H]3[C@@H](CCC4=CC(=O)CC[C@@H]43)[C@@H]1CCC2=O | 208 to 212 °C
8 | Cc1nc2cc(NC(=O)NC34CC5CC(CC(C5)C3)C4)ccc2s1 | 209 to 214 °C
9 | CSc1sc(C(=O)O)c2c1-c1oc(C)nc1CC2 | > 300 °C
10 | N#Cc1cc(C(=O)NN2CCOCC2)ccc1OCC(=O)Nc1ccc(Cl)cn1 | 165 to 167 °C
11 | Cc1ccc(NC(=S)NCc2ccc3c(c2)CN(C2CCC(=O)NC2=O)C3=O)cc1Cl (centres undefined) | 240 to 242 °C
12 | CCOC(=O)c1ncn2c1CN(C)C(=O)c1cc([N+](=O)[O-])ccc1-2 | 197 to 199 °C
13 | O=C(c1ccc([N+](=O)[O-])cc1)c1ccc2[nH]c(=O)sc2c1 | 148 to 152 °C
14 | Cc1cc(Oc2ncc(Cl)cc2Cl)n[nH]1 | 109 to 111 °C
15 | COC(C)=Nc1cccc(O)n1 | 128 to 129 °C
16 | CSc1ccc(C(=O)COc2ccc(F)cc2F)cc1 | 70 to 71 °C
17 | CS(=O)(=O)OCCN(CCI)c1c(C(=O)NCCOP(=O)(O)O)cc([N+](=O)[O-])cc1[N+](=O)[O-] | 147 to 150 °C
18 | O=[N+]([O-])c1cc(CS(=O)(=O)Cc2ccc(O)c([N+](=O)[O-])c2)ccc1O | 166 to 168 °C
19 | CC(=O)c1ccc(C2c3cc(NC(=O)CC(C)(C)C)c(C)c(C)c3OC2(C)C)cc1 (centres undefined) | 195 to 196 °C
20 | Cc1ccc(N2C(=O)C3=C(CCCC3)C2=O)c2c1OC(C)C2 (centres undefined) | 158 to 160 °C
21 | COc1ccc(S(=O)(=O)N(C)C)c(S(N)(=O)=O)c1 | 106 to 109 °C

Row | Compound | melting point
22 | O=c1c2c(Cl)cc(Cl)cc2nc2n1CCCCC2 | 110 to 112 °C
23 | CCc1cc(C)cc(CC)c1C1C(=O)CC2(CCOCC2)CC1=O | 139 to 141 °C
24 | C=C(C)C(=O)NCCCNC(=O)OC(C)(C)C | 85.8 °C
25 | COc1cc(C(O)C(C)C)cc2c1OC(C)(C)C2 (centres undefined) | 113 to 116 °C
26 | NC(=O)CC12CCCCC1CCc1ccccc12 (centres undefined) | 177 °C
27 | CN(C)C=C(C#N)C(=O)Nc1c(F)cccc1F | 180 to 181 °C
28 | O=C1Nc2ccccc2N2CCN(CCCc3ccncc3)CC12 (centres undefined) | 188 to 190 °C
29 | O=C1C[C@@H]2[C@@H](CC[C@@H](O)COc3cccc(Cl)c3)[C@H](O)C[C@@H]2O1 | 102 to 104 °C
30 | O=[N+]([O-])c1ccc2c(c1)NCC(C(F)F)(C(F)F)O2 | 150 to 152 °C
31 | NCC1CCN(c2nc3ccccc3[nH]2)CC1 | 136 to 138 °C
32 | OC1(C(Br)Br)O[C@H](COCc2ccccc2)[C@@H](OCc2ccccc2)[C@H](OCc2ccccc2)[C@H]1OCc1ccccc1 (some centres undefined) | 77 to 78 °C
33 | FC(F)=C(F)CCCCSc1nnc(-c2ccc(C(F)(F)F)cc2)o1 | 40 °C
34 | COc1cccc2c1CC(C(=O)NCc1ccc(C(=O)O)cc1)N2S(=O)(=O)c1ccc(-c2ccc(F)cc2Cl)cc1 (centres undefined) | 225 to 234 °C
35 | COc1ccc2cc3c(cc2c1)C(=O)NC3=O | > 250 °C
36 | Cc1nnc2c3cccc(Br)c3ccn12 | 203 to 204 °C
37 | CCc1nc(=O)[nH]c2sccc12 | 217 to 220 °C
38 | COC1=CCC2=C(CCC3C2CCC2(C)C3CCC2N(C)CCCN(C)C)C1 (centres undefined) | 78 to 80 °C
39 | O=C(c1cc(Cl)cc(Cl)c1)c1cc(Cl)cc(Cl)c1 | 157 °C
40 | COC(=O)[C@H](CC(C)C)NC(=O)[C@@H](CCSC)NC(=O)OC(C)(C)C | 61 to 64 °C
41 | CN(C)C=C(C#N)C#N | 81 to 82 °C
42 | CC1(C)CC(O)CC(C)(C)N1OCc1ccccc1 | 86 to 87 °C

Second part, the molecule after the results:

Row | melting point | Compound
43 | 174 °C | CN(Cc1cccc(-c2ccc(O)cc2)c1)C(=O)OC(C)(C)C
44 | 121 to 122 °C | CCCCOc1c(CNC(=O)OC(C)(C)C)n(CC(C)(C)C)c(=O)c2ccc(/C=C/C(N)=O)cc12
45 | 168 °C | COc1ccc(-c2cc3c4n(ccc-3n2)CC(C)=N4)cc1
46 | 93 to 95 °C | O=C(OCCOCc1ccccc1)n1c(-c2cscn2)nc2ccccc21
47 | 158 to 160 °C | Cc1cc(Cc2ccccc2)c(NC(=O)OCc2ccccc2)c(=O)n1CC(=O)O
48 | 78 to 79 °C | CCCN1Cc2cscc2Nc2ccccc21
49 | 206 °C | N#Cc1c(N2CCN(C(=O)c3ccco3)CC2)c2cccnc2n(Cc2ccccc2)c1=O
50 | 172 °C | Cn1cc(-c2cnc3ccc(Br)cc3n2)cn1
51 | 162 to 163 °C | O=C(c1ccccc1)N1CC(=O)N2CCc3ccccc3C2C1 (centres undefined)
52 | 69 to 70 °C | O=S(=O)(Nc1cccc(CCOCc2ccc(-c3ccc(Cl)cc3)cc2)c1)C(F)(F)F
53 | 236 to 238 °C | CC(=O)Nc1cccc(S(=O)(=O)N2[C@H](C)CN(CC(=O)Nc3ccccc3C)C[C@@H]2C)c1
54 | 193 to 195 °C | O=C(Nc1cn2nc(Sc3nnc4ccccn34)ccc2n1)C1CC1
55 | 201 to 203 °C | O=c1cc(-c2ccncc2)nc2n(CCCc3c[nH]c4ccccc34)ccn12
56 | 171 to 172 °C | ClCCOc1ccc(C2=C(c3ccccc3)CCCc3ccccc32)cc1
57 | 202 to 204 °C | CCCc1nc2c(N)nc3cc(-c4ccccc4)ccc3c2n1CCCC(C)=O
58 | 155 to 160 °C | CCCCCCC(C(=O)N1CC(O)CC1C(=O)O)n1cnc2cc(-c3ccccc3-c3nn[nH]n3)ccc21 (centres undefined)
59 | 103 to 105 °C | CCCN(CCC)C(=O)Cc1c(-c2ccccc2)nn2cccnc12
60 | 70 to 75 °C | CCc1cccc(-c2ccc(S(=O)(=O)N3c4ccccc4CC3C(=O)NCc3ccc(CC(=O)OC)cc3)cc2)c1 (centres undefined)
61 | 178 to 186 °C | Oc1ccc2c(c1)CCCC(c1ccccc1)=C2c1ccc(OCCCCCSCc2ccccc2)cc1

Row | melting point | Compound
62 | 208 to 210 °C | COc1nc(NC(=O)Nc2ccccc2OC)nc(N(CCC(=O)O)Cc2ccc(Cl)c(Cl)c2)n1
63 | 184 °C | N#CSc1cc(C(=O)O)cc([N+](=O)[O-])c1C(=O)c1ccccc1
64 | 124 to 128 °C | CCOC(=O)N1CC2CC1CN2Cc1ccccc1 (centres undefined)
65 | 166 to 168 °C | O=C(O)c1ccc(NC(=O)C(CS)Cc2ccccc2)cc1 (centres undefined)
66 | 71.1 to 72.6 °C | O=C(c1ccc(F)cc1)c1cc(Cl)nnc1Cl
67 | 166 to 168 °C | COc1cc(C(O)CN2CCC(O)(c3ccccc3)CC2)on1 (centres undefined)
68 | 248 to 250 °C | Cc1cc(C(=O)O)ccc1-c1ccc2cc3c(cc2c1)C(C)(C)CCC3(C)C
69 | 141 to 142 °C | CC(C)CCc1cc(C(O)=S)cc(N)c1C(=O)c1ccccc1
70 | 254 to 257 °C | CC1(C)Cc2ccccc2C1c1cnccc1C(=O)O (centres undefined)
71 | 122 to 125 °C | NS(=O)(=O)c1ccccc1C(=O)c1cccs1
72 | 246 °C | CCOC(=O)CC1=NN(c2ccc(C(=O)O)cc2)C(=O)C1
73 | 132 °C | CCOC(=O)CCc1ccc(CBr)cc1
74 | 135 to 137 °C | Cc1c(C(=O)c2ccccc2)c(NC(=O)CI)cn1C
75 | 140 to 142 °C | COc1cc(C2=C(c3cn(CCCNC(=O)C(CC(C)C)NC(=O)OC(C)(C)C)c4ccccc34)C(=O)NC2=O)cc(OC)c1OC (centres undefined)
76 | 106 to 107 °C | CCOC(=O)c1cc2cc(OCCOC)cc(NS(=O)(=O)c3cccs3)c2[nH]1
77 | 234 to 236 °C | O=C(O)CCCCn1c(=O)c2cc(O)ccc2n(CCCCN2CCC(OC(c3ccccc3)c3ccccc3)CC2)c1=O
78 | 223 to 224 °C | COC(=O)c1ccc(CNC(=O)c2[nH]c(-c3ccoc3)cc2-c2ccc(O)cc2)cc1
79 | 162 to 164 °C | CC(=O)c1cccc(Oc2ncccc2C(=O)NCc2ccc(S(N)(=O)=O)cc2)c1
80 | 216 to 217 °C | O=C(O)c1ccc(NCc2cccc(C(F)(F)F)c2)cn1

Row | melting point | Compound
81 | 183 to 192 °C | Clc1ccc2ncc3nc(Br)n(-c4ccccc4Cl)c3c2c1
82 | 90 to 91 °C | COC(=O)c1cn(Cc2ccc(OCc3nc(-c4ccccc4)oc3C)cc2)nc1C(C)C
83 | 185 to 187 °C | COc1ccc(Nc2nc(N)nc3c(OC)cccc23)c(C)c1
84 | 160 °C | CC(C)n1nc(-c2c(-c3ccccc3)nn3ccc(OCCC4CCCC4)cc23)ccc1=O
85 | 189 to 190 °C | O=C(O)CCCC(=O)Nc1cccc(-c2ccnc3c(C(=O)c4cccs4)cnn23)c1
86 | 144 to 146 °C | CC(O)(CCN)c1ccc(-c2ccc(F)cc2)cc1 (centres undefined)
87 | 213 to 215 °C | Cc1cccc(C)c1NC(=O)C=CC(=O)c1ccc(Cl)c(Cl)c1
88 | 95 to 96 °C | COc1ccc(OC)c(Nc2c(-c3ccc(S(C)(=O)=O)cc3)cnn(CC(F)(F)F)c2=O)c1
89 | 112 to 114 °C | CC#CC(O)(C#CC)c1cc(-c2cccc(Cl)c2)ccc1N
90 | 120 to 123 °C | CN(C)C(c1ccccc1)c1cc(C(C)(C)C)cc(C(C)(C)C)c1O (centres undefined)
91 | 75 to 82 °C | CCn1c(-c2ccc3c(c2)OCCO3)cc(=Nc2c(C)cc(C)cc2C)n(C)c1=O
92 | 97 °C | CC(=O)n1ncc2c(OCc3ccccc3)cccc21
93 | 101 to 104 °C | O=C1OC(CCI)C(O)=C1OCc1ccccc1 (centres undefined)
94 | 157 °C | COc1ccc(C(=O)N(C(=O)c2ccc(OC)cc2)c2nc3ccc(N4CCOCC4)cc3c(NCc3ccccc3)c2C#N)cc1
95 | 107 to 109 °C | CCCN(CCCNc1ncc(Cc2ccc(F)cc2)c(=O)[nH]1)c1ccccn1
96 | 131 to 133 °C | CC1(C)CN(C2CCN(CCc3ccc(F)cc3)CC2)c2cc(CN)ccc21
97 | 255 to 256 °C | CCc1nc2c(N)nc(C)c(C)c2n1Cc1cc(-c2ccc(F)cc2)no1
98 | 220 to 223 °C | CCCN(CO)c1nc(NCc2ccccc2)c2nc(Cl)n(C(C)C)c2n1
99 | 229 to 231 °C | O=C(O)Cn1c(-c2ccc(Br)o2)nc2cccnc21

Reference: a melting point compilation (Tetko et al.; mined from patent text by program, amines drawn as free bases though some values may be those of a salt)
